From patent US11819532B2, “Peptide macrocycles against Acinetobacter baumannii” (Hoffmann-La Roche Inc., priority 2018, dated 2023)

system: not listed separately; test: Plasma precipitation screening assay; parameters: species or system rat; details: Wistar (Hanbrl:Wist SPF), rat, 10 min
Method: An aliquot (10 μL) of compound solubilized in physiological buffer or the formulation used for its parenteral administration in vivo, and of various dilutions thereof in phosphate-buffered saline (PBS), is mixed 1:1 with rat plasma. After 10 minutes incubation at room temperature the UV-absorption of the mixtures is measured and compared to absorption of blank plasma or plasma with vehicle solution. A significant (often concentration dependent) increase of absorption is indicative of precipitation.
Whole blood is obtained from WISTAR rats (Hanbrl:Wist SPF) under terminal anaesthesia after intraperitoneal injection of a pentobarbital solution (from animals euthanized for collection of tissue for other experimental purposes). Blood is collected in 1.2 mL of Heparin S-Monovette tubes (Sarstedt) for the preparation of heparin plasma.
The tubes are then centrifuged for 5 min at 5200 g at room temperature to isolate the plasma supernatant. The plasma is used in the assay within 48 h of collection (storage at 4° C.).
Test compounds are received as powder or formulated. When obtained as powder, they are solubilized in 0.9% aq. sodium chloride solution in order to get the highest indicated concentration to be tested. The solubility is visually checked and the solutions are filtered using 0.45 PVDF hydrophilic filters (Durapore®, Darmstadt, Germany), to remove possible solid impurities. pH of this initial solution might be measured in the filtered stock solutions, before proceeding to prepare a compound dilution series in PBS (1:1-dilution steps).
The assay is conducted in 384-well plates. 10 μL of rat plasma is added to 10 μL of the various compound solutions. The assay is performed in duplicate. 10 μL of vehicle (0.9% aq. sodium chloride solution, PBS) added to the plasma is used as a negative control. The absorption is measured at 362 nm.
Raw data obtained are absorbance data. The difference between absorbance of the sample and mean absorbance of vehicle is calculated. The minimal effect concentration (MEC) is defined as the lowest concentration giving an absorbance difference, OD362≥0.05.

Row | Compound | Plasma precipitation MEC [µmol/L]
1 | CN1C(=O)[C@H](CCCCN)NC(=O)[C@H](CCCN)NCc2nccnc2Sc2c(Cl)ccc(-c3ccc(C(=O)O)c(Cl)c3)c2CNC(=O)[C@@H]1Cc1c[nH]c2ccccc12 (racemic) [Example 8.01, 2-chloro-4-[rac-(11S,14S,17S)-14-(4-aminobutyl)-11-(3-aminopropyl)-25-chloro-17-(1H-indo1-3-ylmethyl)-16-methyl-12,15,18-trioxo-2-thia-4,7,10,13,16,19-hexazatricyclo[19.4.0.03,8]pentacosa-1(21),3,5,7,22,24-hexaen-22-yl]benzoic acid] | 760

system: A. baumannii ATCC 17978; test: 50% growth inhibitory concentration (IC50) determination, antimicrobial susceptibility testing; format: cell-based; details: Acinetobacter baumannii; 50% growth inhibition, A. baumannii strain ATCC17978, Iso-Sensitest medium; read-out: IC50 ATCC17978
Method: The in vitro antimicrobial activity of the compounds was alternatively determined according to the following procedure:
The assay used a 10-points Iso-Sensitest broth medium to measure quantitatively the in vitro activity of the compounds against A. baumannii ATCC 17978.
Stock compounds in DMSO were serially twofold diluted (e.g. range from 50 to 0.097 μM or from 10 to 0.020 μM final concentration) in 384 wells microtiter plates and inoculated with 49 μl the bacterial suspension in Iso-Sensitest medium to have a final cell concentration of ˜5×10^(5)CFU/ml in a final volume/well of 50 μl/well. Microtiter plates were incubated at 35±2° C.
Bacterial cell growth was determined with the measurement of optical density at X=600 nm each 20 minutes over a time course of 16h.
Growth inhibition was calculated during the logarithmic growth of the bacterial cells with determination of the concentration inhibiting 50% (IC50) and 90% (IC90) of the growth.
Table 1 provides the 50% growth inhibitory concentrations (IC50) in micromoles per liter of the compounds of present invention obtained against the A. baumannii strain ATCC17978.

Row | Compound | IC50 [nM]
2 | CN1C(=O)[C@H](CCCCN)NC(=O)[C@H](CCCN)NCc2nccnc2Sc2c(Cl)ccc(-c3ccc(C(=O)O)c(Cl)c3)c2CNC(=O)[C@@H]1Cc1c[nH]c2ccccc12 (racemic) [Example 8.01, 2-chloro-4-[rac-(11S,14S,17S)-14-(4-aminobutyl)-11-(3-aminopropyl)-25-chloro-17-(1H-indo1-3-ylmethyl)-16-methyl-12,15,18-trioxo-2-thia-4,7,10,13,16,19-hexazatricyclo[19.4.0.03,8]pentacosa-1(21),3,5,7,22,24-hexaen-22-yl]benzoic acid] | 28
3 | CN1C(=O)[C@H](CCCCN)NC(=O)[C@H](CCCN)NCc2cccnc2Sc2c(Cl)ccc(-c3ccc(C(=O)O)nc3)c2CNC(=O)[C@@H]1Cc1c[nH]c2ccccc12 [Example 2.02, 5-[(11S,14S,17S)-14-(4-aminobutyl)-11-(3-aminopropyl)-25-chloro-17-(1H-indo1-3-ylmethyl)-16-methyl-12,15,18-trioxo-2-thia-4,10,13,16,19-pentazatricyclo[19.4.0.03,8]pentacosa-1(25),3,5,7,21,23-hexaen-22-yl]pyridine-2-carboxylic acid] | 29
4 | CN1C(=O)[C@H](CCCCN)NC(=O)[C@H](CCCN)NCc2cccnc2Sc2c(Cl)ccc(-c3ccc(C(=O)O)c(O)c3)c2CNC(=O)[C@@H]1Cc1c[nH]c2ccccc12 [Example 3.00, 4-[(1 S,14S,17S)-14-(4-Aminobutyl)-1-(3-aminopropyl)-25-chloro-17-(1H-indol-3-ylmethyl)-16-methyl-12,15,18-trioxo-2-thia-4,10,13,16,19-pentazatricyclo[19.4.0.03,8]pentacosa-1(21), 3(8), 4,6,22,24-hexaen-22-yl]-2-hydroxy-benzoic Acid] | 39
5 | CN1C(=O)[C@H](CCC(F)(F)CN)NC(=O)[C@H](CCCN)NCc2cccnc2Sc2c(Cl)ccc(-c3ccc(C(=O)O)cc3)c2CNC(=O)[C@@H]1Cc1c[nH]c2ccccc12 [Example 4.00, 4-[(11S,14S,17S)-14-(4-Amino-3,3-difluoro-butyl)-11-(3-aminopropyl)-25-chloro-17-(1H-indol-3-ylmethyl)-16-methyl-12,15,18-trioxo-2-thia-4,10,13,16,19-pentazatricyclo[19.4.0.03,8]pentacosa-1(21), 3,5,7,22,24-hexaen-22-yl]benzoic Acid] | 19
6 | CN1C(=O)[C@H](CCCCN)NC(=O)[C@H](CCC(N)=O)NCc2cccnc2Sc2c(Cl)ccc(-c3ccc(C(=O)O)cc3)c2CNC(=O)[C@@H]1Cc1c[nH]c2ccccc12 [Example 5.00, 4-[(11S,14S,17S)-14-(4-aminobutyl)-1-(3-amino-3-oxo-propyl)-25-chloro-17-(1H-indol-3-ylmethyl)-16-methyl-12,15,18-trioxo-2-thia-4,10,13,16,19-pentazatricyclo[19.4.0.03,8]pentacosa-1(21), 3,5,7,22,24-hexaen-22-yl]benzoic Acid] | 67
7 | Cc1[nH]c2ccccc2c1C[C@H]1C(=O)NCc2c(-c3ccc(C(=O)O)cc3)ccc(Cl)c2Sc2ncccc2CN[C@@H](CCCN)C(=O)N[C@@H](CCCCN)C(=O)N1C [Example 7.00, 4-[(11S,14S,17S)-14-(4-Aminobutyl)-11-(3-aminopropyl)-25-chloro-16-methyl-17-[(2-methyl-1H-indol-3-yl)methyl]-12,15,18-trioxo-2-thia-4,10,13,16,19-pentazatricyclo[19.4.0.03,8]pentacosa-1(25), 3,5,7,21,23-hexaen-22-yl]benzoic Acid] | 28
8 | CN1C(=O)[C@H](CCCCN)NC(=O)[C@H](CCCN)NCc2nccnc2Sc2c(Cl)ccc(-c3ccc(C(=O)O)cc3)c2CNC(=O)[C@@H]1Cc1c[nH]c2ccccc12 [Example 8.00, 4-[(11S,14S,17S)-14-(4-Aminobutyl)-11-(3-aminopropyl)-25-chloro-17-(1H-indol-3-ylmethyl)-16-methyl-12,15,18-trioxo-2-thia-4,7,10,13,16,19-hexazatricyclo[19.4.0.03,8]pentacosa-1(21), 3,5,7,22,24-hexaen-22-yl]benzoic Acid] | 20
9 | CN1C(=O)[C@H](CCCCN)NC(=O)[C@H](CCCN)NCc2cccnc2Sc2c(F)ccc(-c3ccn(/C=C/C(=O)O)c(=O)c3)c2CNC(=O)[C@@H]1Cc1c[nH]c2ccccc12 [Example 9.02, (E)-3-[4-[(11S,14S,17S)-14-(4-Aminobutyl)-11-(3-aminopropyl)-25-fluoro-17-(1H-indol-3-ylmethyl)-16-methyl-12,15,18-trioxo-2-thia-4,10,13,16,19-pentazatricyclo[19.4.0.03,8]pentacosa-1(25),3(8),4,6,21,23-hexaen-22-yl]-2-oxo-1-pyridyl]prop-2-enoic acid] | 88
10 | CN1C(=O)[C@H](CCCN)NC(=O)[C@H](CCCN)NCc2cccnc2Sc2c(Cl)ccc(-c3ccc(C(=O)O)cc3)c2CNC(=O)[C@@H]1Cc1c[nH]c2ccccc12 [Example 12.00, 4-[(11S,14S,17S)-11,14-bis(3-Aminopropyl)-25-chloro-17-(1H-indol-3-ylmethyl)-16-methyl-12,15,18-trioxo-2-thia-4,10,13,16,19-pentazatricyclo[19.4.0.03,8]pentacosa-1(21), 3,5,7,22,24-hexaen-22-yl]benzoic Acid] | 19
11 | CN1C(=O)[C@H](CCN)NC(=O)[C@H](CCCN)NCc2cccnc2Sc2c(Cl)ccc(-c3ccc(C(=O)O)cc3)c2CNC(=O)[C@@H]1Cc1c[nH]c2ccccc12 [Example 13.00, 4-[(11S,14S,17S)-14-(2-Aminoethyl)-11-(3-aminopropyl)-25-chloro-17-(1H-indol-3-ylmethyl)-16-methyl-12,15,18-trioxo-2-thia-4,10,13,16,19-pentazatricyclo[19.4.0.03,8]pentacosa-1(25), 3(8), 4,6,21,23-hexaen-22-yl]benzoic Acid] | 20
12 | CN1C(=O)[C@H](CCCN)NC(=O)[C@H](CCCN)NCc2cccnc2Sc2c(F)ccc(-c3ccc(C(=O)O)cc3)c2CNC(=O)[C@@H]1Cc1c[nH]c2ccccc12 [Example 14.00, 4-[(1 S,14S,17S)-11,14-bis(3-Aminopropyl)-25-fluoro-17-(H-indol-3-ylmethyl)-16-methyl-12,15,18-trioxo-2-thia-4,10,13,16,19-pentazatricyclo[19.4.0.03,8]pentacosa-1(25), 3(8), 4,6,21,23-hexaen-22-yl]benzoic Acid] | 21
13 | CN1C(=O)[C@H](CCCCN)NC(=O)[C@H](CCN)NCc2cccnc2Sc2c(Cl)ccc(-c3ccc(C(=O)O)cc3)c2CNC(=O)[C@@H]1Cc1c[nH]c2ccccc12 [Example 15.00, 4-[(1 S,14S,7S)-14-(4-Aminobutyl)-11-(2-aminoethyl)-25-chloro-17-(1H-indol-3-ylmethyl)-16-methyl-12,15,18-trioxo-2-thia-4,10,13,16,19-pentazatricyclo[19.4.0.03,8]pentacosa-1(25), 3(8), 4,6,21,23-hexaen-22-yl]benzoic Acid] | 20
14 | CN1C(=O)[C@H](CCCN)NC(=O)[C@H](CCN)NCc2cccnc2Sc2c(Cl)ccc(-c3ccc(C(=O)O)cc3)c2CNC(=O)[C@@H]1Cc1c[nH]c2ccccc12 [Example 16.00, 4-[(11S,14S,17S)-11-(2-Aminoethyl)-14-(3-aminopropyl)-25-chloro-17-(1H-indol-3-ylmethyl)-16-methyl-12,15,18-trioxo-2-thia-4,10,13,16,19-pentazatricyclo[19.4.0.03,8]pentacosa-1(25), 3(8), 4,6,21,23-hexaen-22-yl]benzoic Acid] | 20
15 | CN1C(=O)[C@H](CCCN)NC(=O)[C@H](CCCN)NCc2cccnc2Sc2cccc(-c3ccc(C(=O)O)cc3)c2CNC(=O)[C@@H]1Cc1c[nH]c2ccccc12 [Example 17.00, 4-[(1 S,14S,17S)-11,14-bis(3-Aminopropyl)-17-(1H-indol-3-ylmethyl)-16-methyl-12,15,18-trioxo-2-thia-4,10,13,16,19-pentazatricyclo[19.4.0.03,8]pentacosa-1(25), 3 (8),4,6,21,23-hexaen-22-yl]benzoic Acid] | 75
